Reference: publication PMC4536990, “Efficacy of the antimicrobial peptide TP4 against Helicobacter pylori infection: in vitro membrane perturbation via micellization and in vivo suppression of host immune responses in a mouse model” (Oncotarget, 2015)
Where a SMILES comes first, the peptide text is derived from it.

Columns and labels:
C3H/HeN mice [1] = experiment: Dermal toxicity; assay type: in vivo
Protocol: (§1) Figure 11 TP4 toxicity safety evaluations in New Zealand albino rabbits and C3H/HeN mice (A) Eye irritation test: Ocular appearances of controls, and rabbits treated with TP4 or SDS for 7 days. […] (B) Dermal toxicity: appearances of the skin of mice treated with TP4 at 48 hr post-exposure.
(§2) Oral toxicity: Acute oral toxicity was assessed in C3H/HeN mice with 6 animals per group, by single oral administration of TP4 (125 mg/kg). After dose administration, the animals were kept under observation for a minimum of 48 hr. The mortality rate and clinical signs were recorded. Sub-acute oral toxicity was assessed by administering 600 μg dose/day for 14 days. During dose administration, the animals were observed every day for any signs of toxicity. After the treatment period, the animals were kept under observation for 14 days. The morbidity, mortality, and other clinical signs were recorded and assessed. Dermal Toxicity was assessed by topical application of TP4 at 10 times the effective dose to skin at the dorsal side of mice. After administration, the animals were kept under observation for a minimum of 48 h. Clinical signs were noted if the animals were in the morbid stage or presented with any abnormalities. Eye irritation test in New Zealand white rabbits: Healthy young adult rabbits were used in the experiment. Eyes were treated with TP4, PBS (vehicle control), or 0.1% SDS (positive control). A repeated dose of 1 mg/kg was administered every day for 7 days. During the treatment period, the eyes were examined on days 1, 3, 5, and 7, and allowed to recover until day 14. Clinical signs were recorded during the test period, and grades were assigned for ocular reactions observed during each examination. All procedures, care, and handling of rabbits were approved by the laboratory animal ethics committee of National Taiwan Ocean University.

C3H/HeN mice [2] = experiment: Sub-acute oral toxicity; assay type: in vivo; conditions: three-fold therapeutic dose (600 μg dose/day) orally for 14 days, observed days 1 to 28, n=6
Protocol: Sub-acute oral toxicity: Three-fold therapeutic doses were orally administered to mice for 14 days.
as §2, with “A repeated dose of 1 mg/kg was administered every day for 7 days. During the treatment period, the eyes were examined on days 1, 3, 5, and 7, and allowed to recover until day 14.” left out, “All procedures, care, and handling of rabbits were approved by the laboratory animal ethics committee of National Taiwan Ocean University.” left out

C3H/HeN mice [3] = experiment: Acute oral toxicity; assay type: in vivo; conditions: single oral dose 125 mg/kg, n=6, observed 24 hours
Protocol: as §2, with “After dose administration, the animals were kept under observation for a minimum of 48 hr.” left out, “All procedures, care, and handling of rabbits were approved by the laboratory animal ethics committee of National Taiwan Ocean University.” left out

[4] = tested on: human and mouse cell lines; conditions: cited from earlier work
Text: (§3) A more complete understanding of how these short amphipathic cationic AMPs bring about bacterial cell death and host immunomodulation is needed for further optimization and development for clinical applications.

[5] = cited from earlier work
Text: as §3

[6] = tested on: New Zealand white rabbits; experiment: Eye irritation test in rabbits (OECD 405); assay type: in vivo; conditions: for Abnormality iris grade / Chemosis grade / Conjunctivae Redness grade / Corneal opacity grade: OECD 405 grading
Protocol: as §1, §2

H. pylori [7] = assay type: cell-based, Helicobacter pylori; conditions: 24 h
Protocol: Frozen cultures were streaked onto BHI agar with 10% sheep blood, and incubated for 24 hr under microaerophilic conditions. H. pylori cells undergoing exponential growth were suspended in sterile phosphate-buffered saline (PBS), and adjusted to 0.05 OD using BHI broth; the resulting inoculum was dispensed onto a microtitre plate. Peptide TP4 was prepared at various concentrations (0.04 to 50 μg mL^−1) using PBS. Antibiotic resistant clinical isolate CI-HC-028 and three reference strains were used for susceptibility testing. All plates were incubated under microaerophilic conditions at 37°C overnight. The MIC was defined as the lowest concentration of the drug at which there was no visible growth. For quality control and comparative analyses, we examined the susceptibility of all four H. pylori strains to the antibiotics amoxicillin, clarithromycin, and metronidazole (Sigma Chemical Co., St. Louis, MO).

[8] = tested on: metronidazole- and clarithromycin-resistant H. pylori strains; experiment: Synergy of TP4 with antibiotics, in vitro dose-OD fall kinetics; assay type: cell-based, Helicobacter pylori; conditions: TP4 plus antibiotic
Protocol: (§4) Animals were sacrificed at each passage, and the MIC of TP4, amoxicillin, metronidazole, and clarithromycin were recorded for 10 serial passages. Passage points in the curves are means ± SEM. (MICs: standard MIC value; MICp: passage-induced MIC). (B) In vitro dose-OD fall kinetics were examined for TP4 alone and in combination with amoxicillin, metronidazole, or clarithromycin. […] The data shown are means ± SEM of two independent experiments
Combination therapy often enhances antibiotic efficacy and mitigates the frequency at which drug resistance emerges. To determine the suitability of TP4 for combination therapy, we examined in vitro dose-OD fall kinetics of TP4 in combination with AMOX, CLRN, or METZ antibiotics; these three antibiotics are traditionally used as the first line of defense against H. pylori.

H. pylori [9] = experiment: Transmission electron microscopy of H. pylori morphology; assay type: cell-based, Helicobacter pylori; conditions: 1x MIC, 2 hr
Text: Figure 4 Electron micrographs reveal that TP4 causes membrane disruption in H. pylori via micellization Approximately 6 × 10^7 H. pylori cells were exposed to PBS (A, D), 1x MIC amoxicillin (B, E), or 1x MIC TP4 peptide (C, F) for 2 hr. Next, thin sections were examined under a transmission electron microscope (TEM) at low (1,100X; A-C) or high (5,500X; D-F) magnification. […] (E) Amoxicillin-treated cells retained intact membranes, but the periplasmic space was swollen in some locations.
Transmission electron microscopy (TEM) was used to examine the mechanism of TP4 action on H. pylori, overall cell morphology, TP4 translocation into H. pylori, and binding of TP4 to internal constituents. H. pylori overnight cultures from BHI-blood agar plates were collected, and 0.1 OD inocula were incubated with TP4, Amoxicillin, and/or PBS (PBS only: negative control). Following drug exposure, H. pylori cells were collected and successively washed twice in PBS by centrifugation and resuspension. The cells were then fixed and processed for TEM using previously described methods. […] Each grid was examined under the same settings. Images were recorded with a 4MP SPOT Insight charge-coupled-device (CCD) camera.

H. pylori outer membrane = experiment: NPN uptake membrane perturbation assay; assay type: cell-based, Helicobacter pylori; conditions: 6 h incubation, 22μg mL−1 NPN
Protocol: Figure 3 TP4 induces membrane permeation of H. pylori TP4 rapidly permeabilizes the H. pylori outer membrane in a dose-dependent manner. Membrane permeabilization was examined by measuring fluorescence due to uptake of 1-N-phenyl-naphthylamine (NPN). Approximately 5 × 10^6 H. pylori (Hp) cells were cultured in the presence of TP4 or amoxicillin for 6 h. Bacterial cells alone, or cells incubated with NPN and control peptide, were used as negative controls. NPN fluorescence intensity was recorded as a correlate of membrane permeation. (B) Zeta-potential (ζ) of H. pylori in the presence/absence of TP4. Striped bars: H. pylori grown in blood agar plates; white bar: liquid culture. The data shown are means ± SEM of two independent experiments
The NPN membrane permeation assay was performed as described previously. Briefly, a starter culture of H. pylori was grown overnight to 0.05 OD. The adjusted culture was aliquoted into different tubes with or without TP4/amoxicillin, and incubated at 37°C for 360 minutes under microaerophilic conditions. […] NPN fluorescence intensity was recorded using a Synergy HT (BioTek, U.S.A) fluorescence ELISA reader, and correlated to membrane potential and permeation. Experiments were performed in triplicate, and the results are expressed as means with standard error.

H. pylori [10] = experiment: Induction of drug resistance by sub-inhibitory passaging (in vitro / in vivo passage); assay type: cell-based, Helicobacter pylori; conditions: sub-inhibitory doses, 10 serial passages
Protocol: as §4
The drug resistance of bacteria to TP4 and clinical antibiotics was determined by in vitro culturing of H. pylori in sub-inhibitory concentrations of TP4 and antibiotics, followed by repeated in vivo passaging. H. pylori was administered to C3H/HeN mice and allowed to colonize the gut; subsequently pure colonies of H. pylori were isolated on EYE selective media. This step was repeated for 10 passages. During each passage, the MICs of TP4 and the conventional antibiotics were determined. All procedures, care, and handling of mice were approved by the laboratory animal ethics committee of National Taiwan Ocean University.

H. pylori CI-HC-028 = experiment: Time-dependent killing of multidrug resistant clinical isolate; assay type: cell-based, Helicobacter pylori; conditions: CI-HC-028, at MIC
Protocol: Control peptide and H. pylori alone were used as controls. The cultures were monitored for 24 h, and aliquots were taken at 1, 3, 6, 12, and 24 h for bacterial enumeration. The data are means ± SEM. […] Approximately, 1 × 10^5 cells were incubated for 1 h, and then incubated with the MIC of TP4, amoxicillin, metronidazole, or clarithromycin (AMOX, METZ, and CLRN, respectively). The cultures were monitored for 24 h, and aliquots taken at 1, 3, 6, 12, and 24 h to determine surviving c.f.u. The data are means ± SEM
Overnight cultures of H. pylori were scraped and adjusted to OD 0.05, and 1 ml/tube inocula were prepared with BHI broth. Solutions of TP4 or clinical antibiotics were prepared with concentrations corresponding to their respective MIC, and PBS was used as a control. The tubes were incubated without shaking at 37°C under microaerophilic conditions, and sample aliquots were taken at 0, 1, 3, 6, 12, and 24 hr. The samples were serially diluted, and appropriate dilutions were plated in triplicate onto blood agar plates for bacterial counts. The results were expressed as mean log (c.f.u. mL^−1) with standard error.

## CC[C@H](C)[C@H](NC(=O)[C@H](C)NC(=O)[C@H](CCCCN)NC(=O)CNC(=O)[C@H](C)NC(=O)[C@H](CO)NC(=O)[C@H](Cc1ccccc1)NC(=O)[C@H](CC(C)C)NC(=O)CNC(=O)CNC(=O)[C@@H](NC(=O)[C@@H](NC(=O)[C@H](Cc1c[nH]cn1)NC(=O)[C@H](Cc1c[nH]cn1)NC(=O)[C@@H](NC(=O)[C@@H](N)Cc1ccccc1)[C@@H](C)CC)[C@@H](C)CC)[C@@H](C)CC)C(=O)N[C@@H](Cc1c[nH]cn1)C(=O)N[C@@H](CCCNC(=N)N)C(=O)N[C@@H](CC(C)C)C(=O)N[C@H](C(=O)N[C@@H](CCCNC(=N)N)C(=O)N[C@@H](CCCNC(=N)N)C(=O)N[C@@H](CCCNC(=N)N)C(=O)N[C@@H](CCCNC(=N)N)C(=O)N[C@@H](CCCNC(=N)N)C(N)=O)[C@@H](C)CC [TP4] (H-FIHHIIGGLFSAGKAIHRLIRRRRR-NH2)
C3H/HeN mice [1]; 48 hr post-exposure, after residue removal, 125 mg/kg TP4 or 20% SDS, n=12 per group
  skin appearance, lesions: No obvious lesions
C3H/HeN mice [1]; topical, 10 times the effective dose, 14-day observation
  dermal toxicity, mortality or damaging effects: did not result in mortality or damaging effects
C3H/HeN mice [2]
  sub-acute oral toxicity, clinical signs: did not induce clinical complications in mice
C3H/HeN mice [3]
  acute oral toxicity, clinical signs and vital organs: did not exhibit any abnormal clinical signs
[4]
  toxicity against cell lines: low toxicity against human and mouse cell lines
[5]
  hemolytic activity: low hemolytic activity
[6]; Day 1
  Abnormality iris grade: 0
  Chemosis grade: 0
  Conjunctivae Redness grade: 0
[6]; Day 1, rabbit eye, daily for 7 days (TP4 1 mg/kg; SDS 0.1%)
  Corneal opacity grade: 0
[6]; Day 3
  Abnormality iris grade: 0
  Chemosis grade: 0.1
  Conjunctivae Redness grade: 0
  Corneal opacity grade: 0
[6]; Day 5
  Abnormality iris grade: 0
  Chemosis grade: 0.1
  Conjunctivae Redness grade: 0.5
  Corneal opacity grade: 0.1
[6]; Day 7
  Abnormality iris grade: 0
  Chemosis grade: 0.1
  Conjunctivae Redness grade: 0
  Corneal opacity grade: 0.3
[6]; Recovery, Day 14
  Abnormality iris grade: 0
  Chemosis grade: 0
  Conjunctivae Redness grade: 0
  Corneal opacity grade: 0
[6]; rabbits treated for 7 days, observed daily
  ocular appearance: no ocular lesions were detected
H. pylori [7]
  MIC: 1.5 to 3 µg/mL

## CC1(C)S[C@@H]2[C@H](NC(=O)[C@H](N)c3ccc(O)cc3)C(=O)N2[C@H]1C(=O)O [amoxicillin]
[8]
  reduction of the MIC of the antibiotic in combination with TP4: one-fourth
H. pylori [9]
  membrane morphology by TEM: loose outer membranes
H. pylori outer membrane
  NPN fluorescence intensity (membrane permeabilization): slight increase in fluorescence intensity at higher doses
H. pylori [10]
  drug resistance index MICp/MICs: increased slightly after passage 6, and remained constant thereafter
H. pylori CI-HC-028
  killing within 24 hr: 90%
